Reference: paper PMC8081376 (Mutagenesis, 2020)

Key:
[1] = tested on: mammalian cells (V79, CHO, CHL, HuLy, TK6, HepG2); conditions: cited from earlier work
[2] = tested on: Phenion®FT Skin Models (keratinocytes and fibroblasts); conditions: application of the dye to the skin; ref [95]; cited from earlier work
[3] = tested on: bacterial reverse mutation test (Ames test) strains; conditions: cited from earlier work
[4] = tested on: PRH, HepG2, CHO, TK6, CHL, MA-10 cells; conditions: TK6 cell line; ref [73]; cited from earlier work
[5] = tested on: mammalian cells (CHL, V79, CHO, HuLy); conditions: cited from earlier work
rats and mice = conditions: rodent studies; topical for sodium xylene sulfonate; ref [65], [72], [82], [85]; cited from earlier work
[6] = tested on: Phenion®FT Skin Models (keratinocytes and fibroblasts)
[7] = tested on: bone marrow, blood, liver, skin; conditions: cited from earlier work

Row | SMILES | Standard in vitro micronucleus test [1] | RS Comet assay outcome in SCCS opinion [2] | Ames test [3] | In vitro comet assay [4] | In vitro chromosomal aberration studies [5] | Carcinogenicity (rats and mice) | Dose producing signs of strong cytotoxicity that limited the top dose (Phenion®FT Skin Models) | Call of statistical prediction models 1 and 2 [6] | Effect on % tail DNA / DNA migration in APC experiment [6] | Effect on % tail DNA / DNA migration in standard experiment [6] | Expert call of the performing laboratory in the coded phase [6] | RS Comet assay overall classification [6] | In vivo micronucleus test in mice [7]
1 | C[N+](C)(C)c1ccc2ccc(O)c(N=Nc3ccc(N)c([N+](=O)[O-])c3)c2c1.[Cl-] [Basic Brown 17] | negative findings | lack of DNA damaging properties | positive findings | – | – | – | – | – | – | – | – | – | –
2 | O=CC=O [Glyoxal] | – | – | – | positive response | clear positive results | non-carcinogenic | 25 µg/cm^2 | positive | statistically significant increase in DNA migration was observed in keratinocytes at the highest dose tested | DNA migration was not increased in either cell type | negative | negative | negative results
